Measurements reported in patent US7312245B2 (priority 2001, dated 2007).
Like-named read-outs stand apart in the source and are kept apart here.

Columns and labels:
Assay type in all cases: in vivo
Pyricularia oryzae [1] = details: spray application of wettable powder diluted to 500 ppm; rice Koshihikari 2-leaf stage; spray-inoculated with Pyricularia oryzae spores; examined after 7 days
Pyricularia oryzae [2] = details: granules applied to water surface at 3 kg/10 ares; rice Koshihikari; inoculated 30 days after application; lesions checked after 1 week
Pyricularia oryzae [3] = details: nursery box treated with granules 50 g per box; rice Koshihikari; inoculated 30 days after transplantation; lesions counted after 1 week

SMILES	Grade of Effect (preventive value, rice blast controlling effect) (Pyricularia oryzae [1])	Grade of Effect (preventive value, rice blast controlling effect) (Pyricularia oryzae [2])	Grade of Effect (preventive value, rice blast controlling effect) (Pyricularia oryzae [3])
Cc1ccc(C(=O)NCC(NC(=O)OCc2ccc(Cl)cc2)C(C)C)cc1 (stereo not drawn) [compound 1066]	A (100%)	A (From 80% to 100%)	A (From 80% to 100%)
Cc1ccc(COC(=O)NC(CNC(=O)c2ccc(Cl)cc2)C(C)C)cc1 (stereo not drawn) [compound 1049]	A (100%)	A (From 80% to 100%)	A (From 80% to 100%)
Cc1ccc(C(=O)NCC(NC(=O)OCc2ccoc2)C(C)C)cc1 (stereo not drawn) [compound 1141]	A (100%)	A (From 80% to 100%)	A (From 80% to 100%)
Cc1ccc(C(=O)NCC(C)(NC(=O)OC(C)c2ccccc2)C(C)C)cc1 (stereo not drawn) [compound 1081]	A (100%)	A (From 80% to 100%)	A (From 80% to 100%)
COC(=O)NC(CNC(=O)c1ccccc1)C(C)C (stereo not drawn) [compound 26]	A (100%)	A (From 80% to 100%)	A (From 80% to 100%)
CC(C)C(CNC(=O)c1ccccc1)NC(=O)OCc1ccccc1 (stereo not drawn) [compound 596]	A (100%)	A (From 80% to 100%)	A (From 80% to 100%)
CC(C)C(CNC(=O)c1ccc(Cl)cc1)NC(=O)OCCS(C)(=O)=O (stereo not drawn) [compound 1273]	A (100%)	A (From 80% to 100%)	A (From 80% to 100%)
COC(=O)NC(CNC(=O)c1ccccc1)c1ccccc1 (stereo not drawn) [compound 66, N-(methoxycarbonyl)-N′-benzoyl-1-phenyl-1,2-ethylenediamine]	A (100%)	A (From 80% to 100%)	A (From 80% to 100%)
Cc1ccc(C(=O)NCC(NC(=O)OCc2cccs2)C(C)C)cc1 (stereo not drawn) [compound 1171]	A (100%)	A (From 80% to 100%)	A (From 80% to 100%)
Cc1ccc(C(=O)NC(C)C(NC(=O)OC(C)C)C(C)C)cc1 (stereo not drawn) [compound 246]	A (100%)	A (From 80% to 100%)	A (From 80% to 100%)
CC(CNC(=O)c1ccc(C(C)(C)C)cc1)NC(=O)OC(C)C (stereo not drawn) [compound 216]	A (100%)	A (From 80% to 100%)	A (From 80% to 100%)
CC(C)OC(=O)NC(C(C)C)C(C)NC(=O)c1ccc(Cl)cc1 (stereo not drawn) [compound 247]	A (100%)	A (From 80% to 100%)	A (From 80% to 100%)
CC(C)C(CNC(=O)c1ccc(Cl)cc1)NC(=O)OCc1ccco1 (stereo not drawn) [compound 1123]	A (100%)	A (From 80% to 100%)	A (From 80% to 100%)
CC(C)COC(=O)NC(CNC(=O)c1ccc(Cl)cc1)C(C)C (stereo not drawn) [compound 384]	A (100%)	A (From 80% to 100%)	A (From 80% to 100%)
